This note sets out measurements from US10781184B2, “Substituted benzazinones as antibacterial compounds” (GlaxoSmithKline Intellectual Property Development Limited, priority 2015, dated 2020).

A word on the MIC: it is the lowest concentration found to suppress growth.

What all share (assay): Minimum Inhibitory Concentration Assay (broth microdilution, CLSI)
What all share (format): cell-based
For orientation: In broth dilution the organism is exposed to a series of concentrations in liquid medium.

One assay has as its system E. coli 7623. The note with it: Escherichia coli; strain 7623, broth microdilution; read-out: E. coli 7623 MIC. The method, then: (§1) Methods for dilution Antimicrobial Susceptibility TestS for Bacteria that Grow Aerobically; Approved Standard-Ninth Edition; M7-A9, Vol. 32 No. 2, Clinical and Laboratory Standards Institute, Wayne, Pa.; January 2012.
(§2) Performance Standards for Antimicrobial Susceptibility Testing; Twenty-Second Informational Supplement; M100-S22 Vol. 32 No. 3; Clinical and Laboratory Standards Institute, Wayne, Pa., January 2012.
(§3) Broth microdilution was performed in accordance with the CLSI recommended procedures for aerobic bacteria [CLSI, 2012].
(§4) Comparator compound stock solutions were prepared as recommended by CLSI [CLSI, 2012]. The stock solutions of novel GSK compounds were prepared at 512 mcg/mL by dissolving the compounds in dimethyl sulfoxide (DMSO) and diluting 1:10 with sterile water. The 512 mcg/mL stock was further serially diluted in the recommended broth media for the organisms being tested. Final DMSO concentration in test wells was less than 1%.
(§5) Microtitre plates were prepared using the Microlab STAR™ (Hamilton Co., Reno, Nev.) to add media (50 μL) and the Microlab AT Plus system (Hamilton Co., Reno, Nev.) to serially dilute the compounds (final concentration range 0.125 to 128 mcg/mL) and to add inoculum. A positive growth control well containing medium and the test isolate was included on each microtitre plate. Ten microliters of the test medium from the positive growth control well was plated to determine the purity of each test isolate. A microtitre mirror reader (Cooke Instruments, Ltd., England) was used to assist in determining the microdilution MIC endpoints. The MIC was determined as the lowest concentration of compound that inhibited visible growth of the organism.

The next assay has as its system K. pneumoniae 1161486. The note with it: Klebsiella pneumoniae; strain 1161486, broth microdilution; read-out: K. pneumoniae 1161486 MIC. On the procedure: as §1, §2, §3, §4, §5
A further assay relates to P. aeruginosa PA01. Conditions: Pseudomonas aeruginosa; strain PA01, broth microdilution; read-out: P. aeruginosa PA01 MIC. The method, then:
as §1, §2, §3, §4, §5

Values after ≈ are worked out from the molar mass of the structure shown.

As to `CN(C)NCc1ccc(-c2ccc3c(=O)n(CC[C@](C)(C(=O)NO)S(C)(=O)=O)ccc3c2)cc1` [Example 79, (2R)-4-(6-{4-[(2,2-dimethylhydrazin-1-yl)methyl]phenyl}-1-oxo-1,2-dihydroisoquinolin-2-yl)-N-hydroxy-2-methanesulfonyl-2-methylbutanamide], the MIC in the assay on E. coli 7623 was found to be 0.125 µg/mL (≈ 0.257 µM); in the assay with K. pneumoniae 1161486, 0.5 µg/mL (≈ 1.03 µM); in the assay with P. aeruginosa PA01 it was 8 µg/mL (≈ 16.4 µM).

Regarding `Cc1cnc(-c2ccc3c(=O)n(CC[C@](C)(C(=O)NO)S(C)(=O)=O)ccc3c2)s1` [Example 58, (2R)—N-hydroxy-2-methanesulfonyl-2-methyl-4-[6-(5-methyl-1,3-thiazol-2-yl)-1-oxo-1,2-dihydroisoquinolin-2-yl]butanamide], the MIC in the assay on E. coli 7623 amounted to 0.063 µg/mL (≈ 0.145 µM); with K. pneumoniae 1161486, 1 µg/mL (≈ 2.3 µM); in the assay with P. aeruginosa PA01, 4 µg/mL (≈ 9.18 µM).

For `CN(C)c1ccc(-c2ccc3c(=O)n(CC[C@](C)(C(=O)NO)S(C)(=O)=O)cc(F)c3c2)cn1` [Example 90, (2R)-4-{6-[6-(dimethylamino)pyridin-3-yl]-4-fluoro-1-oxo-1,2-dihydroisoquinolin-2-yl}-N-hydroxy-2-methanesulfonyl-2-methylbutanamide], the MIC in the assay on E. coli 7623 stood at 0.063 µg/mL (≈ 0.132 µM); in the assay with K. pneumoniae 1161486, 1 µg/mL (≈ 2.1 µM); in the assay on P. aeruginosa PA01, 32 µg/mL (≈ 67.2 µM).

Consider `CONCc1ccc(-c2ccc3c(=O)n(CC[C@](C)(C(=O)NO)S(C)(=O)=O)cnc3c2)c(F)c1` [Example 50, (2R)-4-(7-{2-fluoro-4-[(methoxyamino)methyl]phenyl}-4-oxo-3,4-dihydroquinazolin-3-yl)-N-hydroxy-2-methanesulfonyl-2-methylbutanamide], for which the MIC was found to be 0.125 µg/mL (≈ 0.254 µM) with E. coli 7623, 0.5 µg/mL (≈ 1.02 µM) in the assay on K. pneumoniae 1161486 and 2 µg/mL (≈ 4.06 µM) with P. aeruginosa PA01.

Turning to `COCCN(C)Cc1ccc(-c2cc3ncn(CC[C@](C)(C(=O)NO)S(C)(=O)=O)c(=O)c3cc2F)c(F)c1` [Example 23, (2R)-4-[6-fluoro-7-(2-fluoro-4-{[(2-methoxyethyl)(methyl)amino]methyl}phenyl)-4-oxo-3,4-dihydroquinazolin-3-yl]-N-hydroxy-2-methanesulfonyl-2-methylbutanamide], the MIC in the assay on E. coli 7623 was found to be 0.25 µg/mL (≈ 0.452 µM); with K. pneumoniae 1161486, 0.5 µg/mL (≈ 0.905 µM); in the assay with P. aeruginosa PA01, 4 µg/mL (≈ 7.24 µM).

As to `CONCc1ccc(-c2ccc3c(=O)n(CC[C@](C)(C(=O)NO)S(C)(=O)=O)ccc3c2)cc1` [Example 78, (2R)—N-hydroxy-2-methanesulfonyl-4-(6-{4-[(methoxyamino)methyl]phenyl}-1-oxo-1,2-dihydroisoquinolin-2-yl)-2-methylbutanamide], the results for the MIC with E. coli 7623, in the assay on K. pneumoniae 1161486 and in the assay on P. aeruginosa PA01 were 0.063 µg/mL (≈ 0.133 µM), 0.125 µg/mL (≈ 0.264 µM) and 4 µg/mL (≈ 8.45 µM), respectively.

On to `C[C@@](CCn1cnc2cc(-c3ccc(CCO)cc3F)c(F)cc2c1=O)(C(=O)NO)S(C)(=O)=O` [Example 27, (2R)-4-{6-fluoro-7-[2-fluoro-4-(2-hydroxyethyl)phenyl]-4-oxo-3,4-dihydroquinazolin-3-yl}-N-hydroxy-2-methanesulfonyl-2-methylbutanamide], for which the MIC in the assay with E. coli 7623 is below 0.03 µg/mL; in the assay with K. pneumoniae 1161486, 1 µg/mL (≈ 2.02 µM); in the assay on P. aeruginosa PA01, 2 µg/mL (≈ 4.04 µM).

In the case of `CN(C)c1ncc(-c2ccc3c(=O)n(CC[C@](C)(C(=O)NO)S(C)(=O)=O)ccc3c2)cn1` [Example 63, (2R)-4-{6-[2-(dimethylamino)pyrimidin-5-yl]-1-oxo-1,2-dihydroisoquinolin-2-yl}-N-hydroxy-2-methanesulfonyl-2-methylbutanamide], the MIC in the assay with E. coli 7623 was 0.125 µg/mL (≈ 0.272 µM); with K. pneumoniae 1161486, 1 µg/mL (≈ 2.18 µM); in the assay on P. aeruginosa PA01, 4 µg/mL (≈ 8.7 µM).

Turning to `COc1ccc(-c2ccc3c(=O)n(CC[C@](C)(C(=O)NO)S(C)(=O)=O)cc(F)c3c2)cc1` [Example 83, (2R)-4-[4-fluoro-6-(4-methoxyphenyl)-1-oxo-1,2-dihydroisoquinolin-2-yl]-N-hydroxy-2-methanesulfonyl-2-methylbutanamide], the MIC in the assay on E. coli 7623 is below 0.03 µg/mL; in the assay on K. pneumoniae 1161486 it was 0.25 µg/mL (≈ 0.541 µM); with P. aeruginosa PA01, 8 µg/mL (≈ 17.3 µM).

`C[C@@](CCn1cnc2cc(-c3ccc4c(c3)COC4)c(F)cc2c1=O)(C(=O)NO)S(C)(=O)=O` [Example 32, (2R)-4-[7-(1,3-dihydro-2-benzofuran-5-yl)-6-fluoro-4-oxo-3,4-dihydroquinazolin-3-yl]-N-hydroxy-2-methanesulfonyl-2-methylbutanamide]: the figures for the MIC in the assay with E. coli 7623, with K. pneumoniae 1161486 and with P. aeruginosa PA01 were 0.125 µg/mL (≈ 0.263 µM), 0.5 µg/mL (≈ 1.05 µM) and 4 µg/mL (≈ 8.41 µM), respectively.

Take `Cc1c(-c2ccc(CN3CCOCC3)cc2)ccc2c(=O)n(CC[C@](C)(C(=O)NO)S(C)(=O)=O)cnc12` [Example 29, (2R)—N-hydroxy-2-methanesulfonyl-2-methyl-4-(8-methyl-7-{4-[(morpholin-4-yl)methyl]phenyl}-4-oxo-3,4-dihydroquinazolin-3-yl)butanamide]: the results for the MIC in the assay with E. coli 7623, in the assay with K. pneumoniae 1161486 and in the assay with P. aeruginosa PA01 were 0.5 µg/mL (≈ 0.946 µM), 0.5 µg/mL (≈ 0.946 µM) and 4 µg/mL (≈ 7.57 µM), respectively.

Turning to `CN(C)Cc1ccc(-c2ccc3c(=O)n(CC[C@](C)(C(=O)NO)S(C)(=O)=O)cc(F)c3c2)cc1` [Example 85, (2R)-4-(6-{4-[(dimethylamino)methyl]phenyl}-4-fluoro-1-oxo-1,2-dihydroisoquinolin-2-yl)-N-hydroxy-2-methanesulfonyl-2-methylbutanamide], the MIC in the assay with E. coli 7623 was found to be 0.5 µg/mL (≈ 1.02 µM); in the assay on K. pneumoniae 1161486, 1 µg/mL (≈ 2.04 µM); in the assay with P. aeruginosa PA01 it was 4 µg/mL (≈ 8.17 µM).

`C[C@@](CCN1CCc2cc(-c3ccc(CN4CCOCC4)cc3)ccc2C1=O)(C(=O)NO)S(C)(=O)=O` [Example 92, (2R)—N-hydroxy-2-methanesulfonyl-2-methyl-4-(6-{4-[(morpholin-4-yl)methyl]phenyl}-1-oxo-1,2,3,4-tetrahydroisoquinolin-2-yl)butanamide]: the MIC in the assay with E. coli 7623 amounted to 0.5 µg/mL (≈ 0.97 µM); in the assay with K. pneumoniae 1161486, 0.5 µg/mL (≈ 0.97 µM); in the assay on P. aeruginosa PA01 it was 4 µg/mL (≈ 7.76 µM).

Turning to `COc1ccc(-c2cc3ncn(CC[C@](C)(C(=O)NO)S(C)(=O)=O)c(=O)c3cc2F)cn1` [Example 30, (2R)-4-[6-fluoro-7-(6-methoxypyridin-3-yl)-4-oxo-3,4-dihydroquinazolin-3-yl]-N-hydroxy-2-methanesulfonyl-2-methylbutanamide], the results for the MIC in the assay with E. coli 7623, with K. pneumoniae 1161486 and in the assay with P. aeruginosa PA01 were 0.25 µg/mL (≈ 0.538 µM), 1 µg/mL (≈ 2.15 µM) and 16 µg/mL (≈ 34.4 µM), respectively.

`C[C@@](CCn1cnc2cc(-c3ccc(CN4CC(F)(F)C4)cc3F)ccc2c1=O)(C(=O)NO)S(C)(=O)=O` [Example 40, (2R)-4-(7-{4-[(3,3-difluoroazetidin-1-yl)methyl]-2-fluorophenyl}-4-oxo-3,4-dihydroquinazolin-3-yl)-N-hydroxy-2-methanesulfonyl-2-methylbutanamide]: the MIC in the assay with E. coli 7623 is 0.5 µg/mL (≈ 0.928 µM); with K. pneumoniae 1161486 it was 0.5 µg/mL (≈ 0.928 µM); with P. aeruginosa PA01 it was 4 µg/mL (≈ 7.43 µM).

In the case of `C[C@@](CCn1ccc2cc(-c3ccc(CCN4CCOCC4)cc3)ccc2c1=O)(C(=O)NO)S(C)(=O)=O` [Example 80, (2R)—N-hydroxy-2-methanesulfonyl-2-methyl-4-(6-{4-[2-(morpholin-4-yl)ethyl]phenyl}-1-oxo-1,2-dihdroisoquinolin-2-yl)butanamide], the MIC was found to be 0.063 µg/mL (≈ 0.119 µM) in the assay with E. coli 7623, 0.25 µg/mL (≈ 0.474 µM) in the assay with K. pneumoniae 1161486 and 1 µg/mL (≈ 1.9 µM) in the assay with P. aeruginosa PA01.

For `COCCCN(C)Cc1ccc(-c2ccc3c(=O)n(CC[C@](C)(C(=O)NO)S(C)(=O)=O)ccc3c2)c(F)c1.Cl` [Example 70, (2R)-4-[6-(2-fluoro-4-{[(3-methoxypropyl)(methyl)amino]methyl}phenyl)-1-oxo-1,2-dihydroisoquinolin-2-yl]-N-hydroxy-2-methanesulfonyl-2-methylbutanamide], the figures for the MIC with E. coli 7623, in the assay with K. pneumoniae 1161486 and with P. aeruginosa PA01 were 0.125 µg/mL, 0.25 µg/mL and 2 µg/mL, respectively.

As for `COCc1ccc(-c2ccc3c(=O)n(CC[C@](C)(C(=O)NO)S(C)(=O)=O)cnc3c2)cc1` [Example 47, (2R)—N-hydroxy-2-methanesulfonyl-4-{7-[4-(methoxymethyl)phenyl]-4-oxo-3,4-dihydroquinazolin-3-yl}-2-methylbutanamide], the figures for the minimal inhibitory concentration (MIC) in the assay on E. coli 7623, in the assay with K. pneumoniae 1161486 and with P. aeruginosa PA01 were 0.063 µg/mL (≈ 0.137 µM), 0.125 µg/mL (≈ 0.272 µM) and 0.5 µg/mL (≈ 1.09 µM), respectively.

With `CC(=O)OCCc1ccc(-c2cc3ncn(CC[C@](C)(C(=O)NO)S(C)(=O)=O)c(=O)c3cc2F)cc1` [Example 34, 2-(4-{6-fluoro-3-[(3R)-3-(hydroxycarbamoyl)-3-methanesulfonyl-3-methylpropyl]-4-oxo-3,4-dihydroquinazolin-7-yl}phenyl)ethyl acetate], the MIC was below 0.03 µg/mL in the assay with E. coli 7623, 0.25 µg/mL in the assay on K. pneumoniae 1161486 and 4 µg/mL in the assay with P. aeruginosa PA01.

Regarding `Cc1ccc(-c2ccc3c(=O)n(CC[C@](C)(C(=O)NO)S(C)(=O)=O)nnc3c2)c(F)c1` [Example 19, (2R)-4-[7-(2-fluoro-4-methylphenyl)-4-oxo-3,4-dihydro-1,2,3-benzotriazin-3-yl]-N-hydroxy-2-methanesulfonyl-2-methylbutanamide], the MIC with E. coli 7623 worked out at 0.125 µg/mL (≈ 0.279 µM); with K. pneumoniae 1161486, 0.25 µg/mL (≈ 0.557 µM); in the assay on P. aeruginosa PA01 it was 8 µg/mL (≈ 17.8 µM).
